Like-named read-outs stand apart in the source and are kept apart here.
Tests used:
PICV-GFP = assay: microbe, parasite or virus in culture; assay type: cell-based; details: Pichinde virus, Vero C1008, 48 h
[1] = test system: MLV pseudovirus bearing JUNV glycoprotein; assay: microbe, parasite or virus in culture; assay type: cell-based; details: Vero, 24 h
[2] = test system: MLV pseudovirus bearing LCMV glycoprotein; assay: microbe, parasite or virus in culture; assay type: cell-based; details: Vero, 24 h
[3] = test system: MLV pseudovirus bearing PICV WT glycoprotein; assay: microbe, parasite or virus in culture; assay type: cell-based; details: Vero, 24 h
[4] = test system: MLV pseudovirus bearing MARV Angola glycoprotein; assay: microbe, parasite or virus in culture; assay type: cell-based
[5] = test system: MLV pseudovirus bearing MARV Musoke glycoprotein; assay: microbe, parasite or virus in culture; assay type: cell-based
LASV Josiah = assay: microbe, parasite or virus in culture; assay type: cell-based, Lassa virus; details: Mammarenavirus lassaense, Vero C1008
arenaviruses = assay: organism not typed; assay type: cell-based; details: read-out: in vitro IC50
EBOV and MARV = assay: microbe, parasite or virus in culture; assay type: cell-based; details: Zaire ebolavirus, read-out: in vitro IC50
[6] = test system: LASV and JUNV pseudoviruses; assay: organism not typed; assay type: cell-based
[7] = human, in vivo, cited from earlier work

| SMILES | IC50 (PICV-GFP) | IC50 [1] | IC50 [2] | IC50 [3] | IC50 [4] | IC50 [5] | IC50 (LASV Josiah) | IC50 (arenaviruses) | IC50 (EBOV and MARV) | fold reduction of IC50 of arbidol by combination [6] | IC50 ([6]; read-out: IC50 of arbidol in combination) | Cmax ([7]; po) | Cmax [7] |
| --- | --- | --- | --- | --- | --- | --- | --- | --- | --- | --- | --- | --- | --- |
| CCN(CC)Cc1cc(Nc2ccnc3cc(Cl)ccc23)ccc1O [amodiaquine] | 4.5 µM | – | – | – | – | – | – | – | – | – | – | – | – |
| CCOC(=O)c1c(CSc2ccccc2)n(C)c2cc(Br)c(O)c(CN(C)C)c12 [arbidol] | 8.4 µM | 6.4 µM | 7.4 µM | 7.4 µM | 3.9 µM | 3.5 µM | 10 µM | 6 to 10 µM | 2.7 to 3.9 µM | about 2 fold | 3 to 4 µM | 900 to 1500 nM | 4000 nM |
| O=C(Nc1ccc([N+](=O)[O-])cc1Cl)c1cc(Cl)ccc1O [niclosamide] | < 0.2 µM | – | – | – | – | – | 0.2 µM | – | – | – | – | – | – |
